Laboratory results reported in PMC9525908, “α-Crystallin chaperone mimetic drugs inhibit lens γ-crystallin aggregation: Potential role for cataract prevention” (The Journal of Biological Chemistry, 2022).
Like-named read-outs stand apart in the source and are kept apart here.

How the values were obtained:
[1] = tested on: Bovine γ-crystallins; assay: Thermal aggregation (72 °C) turbidity assay, bovine γ-crystallins (pool 4); assay type: biochemical; conditions: for Thermal denaturation inhibitory activity in subscreen: 150 μM; for Thermal denaturation inhibitory activity in subscreen / % Suppression: 72 °C 20 min; for % Suppression: 75 μM protein, 125 μM or less inhibitor (1.7:1); for Effect on BGC aggregation at lower protein concentrations / Effect on absorbance of BGC at 2.0 mg/ml: 400 μM drug, 72 °C, 10 and 20 min
Experimental: Candidate compounds were rescreened using thermal denaturation upon heating at 72 °C for 20 min according to Chen et al. ([36]) in order to select for compounds with chaperone rather than antioxidant activity since a large number of the latter already exist in the cataract field ([37]).
(§1) For a review, see the study by Roskamp et al. ([38]). […] For the mechanistic studies below these two compounds together with either drug M, chosen mostly as negative control, or the entire set of six compounds were used for comparison purpose, whereby the words “drug” or “compound” are used interchangeably in the studies later.
All assays were carried out manually in CORNING #9017 Costar Assay 96-well plates. Wells were filled with 90 μl calf γ-crystallin-rich protein solution (pool 4 at 2 mg/ml) followed by 0.5 to 5.0 μl of drug (all 10 mM stock solution in DMSO) as supplied by the manufacturer and 10 μl H2O2 (450 mM stock solution in water) and sealed with sticky Applied Biosystems MicroAmp Clear Adhesive films (Life Technologies). Control wells received DMSO only. Plates were shaken for 2 min and incubated from 24 to 72 h in a culture room at 37 °C. […] A second reading was performed following a heat shock of 20 min at 72 °C as described by Chen et al. ([36]) in order to capture drugs with heat-resistant chaperone activity. In order to quantitate the impact of the drugs on aggregation, a fitness plot was created (Fig. 1 C) that allowed us to identify wells with enhanced/worsening versus suppressed crystallin aggregation. In addition, aggregation in each well was also visually assessed by two independent “blinded” readers for the ability to read fine print through each well by placing the plates over small font text (Fig. 1D). Both machine and visual readouts were reconciled in order to increase robustness.
(§2) Final DMSO concentration was 5% including in control samples. Microtiter plates were first incubated for 10 min at 72 °C and reincubated for 10 more min. Absorbance was measured at both 10 and 20 min total incubation time.

[2] = molecular target: T1, OPJ-MγS (Mus musculus, UniProt O35486, F10S); assay: bis-ANS binding study, OPJ-MγS; conditions: 10 μM protein, 100 μM drug; read-out: Percent inhibition of binding of bis-ANS, OPJ-MγS
T1 construct: made in house; host or cells: E. coli BL21(DE3) pLysS, pET17b vector
T1 sequence (O35486 1-178 F10S): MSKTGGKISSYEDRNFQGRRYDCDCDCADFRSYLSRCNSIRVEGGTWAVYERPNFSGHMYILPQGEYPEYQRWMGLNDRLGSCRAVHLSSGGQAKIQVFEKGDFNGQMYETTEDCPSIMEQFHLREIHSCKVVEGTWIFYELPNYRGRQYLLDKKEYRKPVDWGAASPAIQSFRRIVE
Experimental: Extrinsic fluorescence spectra were recorded using bis-ANS, a well-known surface hydrophobicity probe. The spectra were recorded between 400 and 600 nm after exciting at 390 nm. The experiment was performed on 10 μM of HγD and MγS in 50 mM K3PO4 buffer with and without our candidate drugs (100 μM). Bis-ANS stock solution was prepared in methanol whose final percentage was maintained below 7 after mixing with proteins ([81]).

[3] = molecular target: T2, HγD (Homo sapiens, UniProt P07320); assay: Thermal aggregation (72 °C) turbidity assay, recombinant HγD; assay type: biochemical; conditions: for inhibition at 125 µM / Effect on HγD at 2.0 mg/ml and 20 min: 20 min; for inhibition at 125 µM: 75 μM protein, 125 μM or less inhibitor (1.7:1); for Effect on HγD aggregation at low protein / Effect on HγD at 2.0 mg/ml and 20 min: 72 °C
T2 construct: made in house; host or cells: E. coli BL21(DE3) pLysS, pET3d vector
T2 sequence (P07320 1-174): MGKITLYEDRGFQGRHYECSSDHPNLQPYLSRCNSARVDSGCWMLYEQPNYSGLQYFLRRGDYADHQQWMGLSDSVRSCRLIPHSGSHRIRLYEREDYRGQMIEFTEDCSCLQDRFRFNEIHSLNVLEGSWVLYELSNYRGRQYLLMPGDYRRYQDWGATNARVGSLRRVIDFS
Experimental: For refinement of the aforementioned screen, these compounds were tested at concentrations varying from 50 to 500 μM and 1.5 mg/ml concentration of recombinant HγD, human gamma S (HγS), its deamidation mutants γS_N14, γS_N76, γS_N143 and its triple mutant γSTM (Fig. 1F). In addition, other drugs and compounds that tested positive in the initial screen were also included, such as escin (E), hematein (I), citric acid (CA), docusate sodium (DS), and sennoside A (S) (Fig. S1B). […] For a review, see the study by Roskamp et al. ([38]). […] Thus, drug C and drug G emerged as the strongest antidenaturation/aggregation and potential anticataract drugs. For the mechanistic studies below these two compounds together with either drug M, chosen mostly as negative control, or the entire set of six compounds were used for comparison purpose, whereby the words “drug” or “compound” are used interchangeably in the studies later.
For end-point assays, HγD and MγS (1 mg/ml, 100 μl) in 50 mM K3PO4 buffer (pH 7.2) in set of triplicates in transparent flat bottom 96-well plates were heated at 72 °C for 20 min in the presence and absence of selected drugs at varying concentrations. Absorbance was measured at 600 nm with a SpectraMax iD5 (Molecular Devices).
HγD protein (2.5 mg/ml buffer A) was incubated at 72 °C for 20 min without or with 100 or 400 μM drug G or C in buffer A. Final DMSO concentration was 5% in all samples. […] Therefore, samples with and without 400 μM drug G were chosen for identification of drug G-induced miscleavage sites upon digestion with 25:1 protein:trypsin ratio (sequencing grade modified trypsin; Promega) in buffer A. After 4 h, samples were frozen at −80 °C until processed for determination of miscleavage sites using proteomics analysis. LC–MS/MS analysis was performed on an Orbitrap Eclipse mass spectrometer (Thermo Fisher Scientific) coupled with a Waters nanoAcquity UPLC system (Waters) in total 90 min run using a linear gradient range from 0 to 42% solvent B (0.1% formic acid in acetonitrile) versus solvent A (0.1% formic acid in water) at a flow rate of 300 nl/min. MS1 full mass spectra were acquired in the Orbitrap mass analyzer at the resolution of 120 K. MS/MS tandem mass spectra were generated in the ion trap mass analyzer by collision-induced dissociation of peptide ions at a normalized collision energy of 35%. The resulting MS/MS spectra were searched against human gamma D protein database using Mass Matrix software (MassMatrix, Inc) with the mass errors of 10 ppm and 0.8 Da for MS1 and MS/MS scans, respectively. The oxidation of methionine was set for variable modifications, and three miscleavages were allowed for the search.
as §2

[4] = molecular target: T3, HγS_N76D (Homo sapiens, UniProt P22914, N77D); assay: Thermal aggregation (72 °C, 20 min) turbidity assay, HγS_N76D; assay type: biochemical; conditions: read-out: % Suppression; for inhibition: HγS_N76D, 75 μM protein, 72 °C 20 min
T3 sequence (P22914 1-178 N77D): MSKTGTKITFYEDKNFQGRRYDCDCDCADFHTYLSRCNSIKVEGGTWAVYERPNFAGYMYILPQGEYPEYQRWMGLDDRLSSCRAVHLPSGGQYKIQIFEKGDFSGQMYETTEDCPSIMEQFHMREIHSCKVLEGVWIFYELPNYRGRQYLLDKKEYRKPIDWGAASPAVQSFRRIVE
Excerpt: as §1

[5] = Bovine γ-crystallins experiment 1
[6] = Bovine γ-crystallins experiment 2
[7] = HγD experiment 1, 72 °C 20 min, read-out: % Suppression
[8] = HγD experiment 2, 72 °C 20 min, read-out: % Suppression
[9] = read-out: % Suppression, HγD experiment 1, 72 °C 20 min
[10] = read-out: % Suppression, HγD experiment 2, 72 °C 20 min

SMILES | Thermal denaturation inhibitory activity in subscreen [1] | % Suppression [1, 5] [%] | % Suppression [1, 6] [%] | inhibition at 100 µM [2] [%] | inhibition at 125 µM [3, 7] [%] | inhibition at 125 µM [3, 8] [%] | inhibition at 125 µM [4] [%] | Effect on BGC aggregation at lower protein concentrations [1] | Effect on absorbance of BGC at 2.0 mg/ml [1] | Effect on HγD aggregation at low protein ([3]; 400 μM drug) | Effect on HγD at 2.0 mg/ml and 20 min ([3]; 400 μM drug) | inhibition at 125 µM [3, 9] [%] | inhibition at 125 µM [3, 10] [%] | inhibition [4] [%] | Turbidity suppression ([3]; HγD 2.5 mg/ml, 400 μM drug, 72 °C 20 min, 5% DMSO)
Oc1c(Cl)cc(Cl)c(Cl)c1Cc1c(O)c(Cl)cc(Cl)c1Cl [drug X, Hexachlorophene] | thermal denaturation inhibitory activity | 30 | 55 | 2.45 ± 0.00075 | 61 | 47 | 60 | – | – | – | – | – | – | – | –
Cc1cc(C(C#N)c2ccc(Cl)cc2)c(Cl)cc1NC(=O)c1cc(I)cc(I)c1O (stereo not drawn) [drug C, Closantel] | thermal denaturation inhibitory activity | 60 | 73 | 20.28 ± 0.00089 | – | – | 70 | stimulated aggregation | reproducibly suppressed absorbance | worsened HγD aggregation | no baseline change | 65 | 73 | – | –
O=C(O)CCCCCCCCCCCC[C@@H]1C=CCC1 [drug M, Chaulmoogric acid] | thermal denaturation inhibitory activity | 40 | 16 | 3.48 ± 0.001 | 38 | 73 | – | – | – | – | – | – | – | 55 | –
COC(=O)/C=C/C(C)=C\C=C\C(C)=C\C=C\C=C(C)\C=C\C=C(C)\C=C\C(=O)O [drug B, Bixin] | thermal denaturation inhibitory activity | 23 | 54 | 11.83 ± 0.00091 | 63 | 60 | – | – | – | – | – | – | – | 57 | –
CC(C)=CCCC1(C)C=Cc2c(O)c3c(c(CC=C(C)C)c2O1)OC12C(=CC4CC1C(C)(C)OC2(C/C=C(/C)C(=O)O)C4O)C3=O (stereo not drawn) [drug D, dihydrogambogic acid] | thermal denaturation inhibitory activity | 40 | 44 | 7.76 ± 0.00097 | – | – | 59 | – | – | – | – | 66 | 78 | – | –
CC(C)=CCC[C@]1(C)C=Cc2c(O)c3c(c(CC=C(C)C)c2O1)O[C@]12C(=C[C@@H]4C[C@H]1C(C)(C)O[C@@]2(C/C=C(/C)C(=O)O)C4=O)C3=O [drug G, Gambogic acid] | thermal denaturation inhibitory activity | 48 | 75 | 31.62 ± 0.00057 | – | – | 55 | stimulated aggregation | reproducibly suppressed absorbance | worsened HγD aggregation | no baseline change | 69 | 75 | – | markedly suppressed turbidity
